Data set [1] has as its target Arf6 (Homo sapiens (Human), UniProt P62330). Briefly: Fluorometric assay for Arf6 nucleotide exchange catalyzed by ARNO Sec7 domain (GTP-BODIPY FL). Type of data set: biochemical.
Data set [2] concerns the target Arf6 (Mus musculus (Mouse), UniProt P62331). Briefly: Arf6 pulldown assay (GTP-bound Arf6, GST-Gga3, Western blot). The data set is classed as cell-based. As to conditions: NIH3T3 cells, 4 hours incubation. The method, then: The cell cultures were incubated in the presence of test compounds for 4 hours followed by pull-down of GTP-bound Arf6 from cell lysates using recombinant GST-Gga3 immobilized on glutathione agarose and Western blot analysis.
Arf6 pulldown assay: Assessment of intracellular levels of active Arf6 may be a direct mechanism-based approach for monitoring on-target cellular activities of active Arf6 inhibitors. A commercially available pull-down technique, which relies on recombinant Gga3 protein as a sensor of the GTP-bound state for the members of Arf protein family, can be employed for this purpose (see, e.g., Shiba T, Kawasaki M, Takatsu H, Nogi T, Matsugaki N, Igarashi N, Suzuki M, Kato R, Nakayama K, Wakatsuki S. Molecular mechanism of membrane recruitment of GGA by ARF in lysosomal protein transport. Nat Struct Biol. 2003 May; 10(5):386-93).
The vendor's procedure was modified from 10-cm culture dish to 24-well plate format and adapted to a number of different cell lines, including cultured mouse embryonic fibroblasts NIH 3T3 due to its robust response to Arf6 inhibitors observed in the proof-of-principle studies (see FIG. 2).
Background: In western blotting, separated proteins are transferred to a membrane and probed.

Data set [3] concerns LOX melanoma cells. Briefly: Cell invasion assay (Matrigel Invasion Chambers). Type of data set: cell-based. The text has this:
Cell invasion assay: This assay uses Matrigel Invasion Chambers (BD Biosciences) and monitors cell penetration through 8.0 μm filters coated with a solubilized basement membrane matrix, which serves as barrier for non-invading cells (see, e.g., Albini A, Iwamoto Y, Kleinman H K, Martin G R, Aaronson S A, Kozlowski J M, McEwan R N. A rapid in vitro assay for quantitating the invasive potential of tumor cells. Cancer Res. 1987 Jun. 15; 47(12):3239-45).

In data set [4] the test system is LOX melanoma cells. Briefly: Cell proliferation assay (WST-8), LOX. Type of data set: cell-based. As to conditions: concentrations greater than 1 μM. The text has this:
(§1) Cell proliferation assay: This assay employs WST-8 colorimetric readout (Dojindo) and relies on the total activity of mitochondrial dehydrogenases as a measure of the number of viable cells over time.
In general terms: Tetrazolium dyes change colour on reduction, which living cells bring about.

Data set [5] relates to LN-229 glioblastoma cells. Briefly: Cell proliferation assay (WST-8), LN-229. Type of data set: cell-based. As to conditions: concentrations greater than 1 μM.
Text: as §1

Data set [6] deals with VEGF-induced retinal permeability. Briefly: VEGF-induced retinal permeability in mice (Evans blue dye). The data set is classed as in vivo. As to conditions: mice. The method, then: In the experiment, VEGF (50 ng) and either Compound 38 or 65 (500 ng) or NAV-3745 (500 ng) were given to mice in a single intraocular injection. Evans blue dye (EBD) was given via IV approximately 6 hours after the injection, and the retinas were harvested after an additional 2 hours. Retinal permeability was measured on Day 2 after an overnight extraction of EBD in formamide, at OD 620-740 nm.
In the experiment, VEGF (50 ng) and the test compound were given to mice in a single intraocular injection. Avastin was given at a dose of 20 μg, Compound 38 at either 50 ng or 500 ng (as noted in FIG. 7), and SU4312 at 5 μg. As with the previous experiment, Evans blue dye (EBD) was given via IV approximately 6 hours after the injection, and the retinas were harvested after an additional 2 hours. Retinal permeability was measured on Day 2 after an overnight extraction of EBD in formamide, at OD 620-740 nm.

Data set [7] has the same test system. Briefly: VEGF-induced retinal permeability in rats (Evans blue dye). As to conditions: rats; Compound 38 60 mg/kg IP, Avastin 200 μg intraocular (FIG. 8). Type of data set: in vivo. As to the method: In the experiment, VEGF (500 ng) and Avastin (200 μg) were given to rats in a single intraocular injection on Day 1. Compound 38 (60 mg/kg) was administered by IP injection 1 hour prior to VEGF on Day 1. Rats were given Evans blue dye (EBD) via IV infusion on Day 2, and the retinas were harvested after an additional 1.5 hours. The retinas were dissected and incubated overnight in formamide. Vascular leak was calculated on Day 3.

The test system of data set [8] is Choroidal Neovascularization (CNV). Briefly: Laser-induced choroidal neovascularization (CNV) in mice. Type of data set: in vivo. As to conditions: 5 μg, 0.5 μg and 0.05 μg on Days 0 and 7, measured Day 14. As to the method:
In the experiment on Day 0, the Bruch's membrane of each eye was disrupted with a laser. On Days 0 and 7, test compounds were administered, and on Day 14, the area of CNV was measured. Commercially available compound SU4312 was used as a positive control. Compound 38 was dosed at 5 μg, 0.5 μg, and 0.05 μg, as noted in FIG. 9.

Data set [9] deals with oxygen-induced retinopathy. Briefly: Oxygen-induced retinopathy (OIR) in mice. As to conditions: 5 μg intraocular Days 12 and 15, measured Day 17. The data set is classed as in vivo. As to the method: In the experiment, mice pups were placed in a 75% oxygen environment from Days 5-12. The mice were returned to a normal oxygen environment on Day 13. The test compounds were administered (5 μg) by intraocular injection on Days 12 and 15, and the area of neovascularization was measured on Day 17. Compound 38 was compared with SU4312 in oxygen-induced retinopathy (OIR) in mice (see FIG. 11). […]

Data set [10] relates to LPS-induced acute lung injury. Briefly: LPS-induced acute lung injury in mice (BALF analysis). The data set is classed as in vivo. As to conditions: 24 hours after LPS, Compound 38 60 mg/kg, dexamethasone 5 mg/kg. As to the method:
In the experiment, LPS (5 mg/kg) was given by intra-tracheal instillation. Dexamethasone (5 mg/kg) was given as a positive control 2 hours after the LPS. Bronchoalveolar fluid (BALF) was analyzed for cell count and protein 24 hours after the LPS.

The subject of a further data set is H1N1 virus. As to conditions: IP QD five days; Compound 65 20 mg/kg, ribavirin 75 mg/kg.
Where [11] appears, read: 20 nM Arf6 assay, read-out: IC50 (μM) 20 nM Arf6.
Setting [12] is: 200 nM Arf6 assay, read-out: IC50 (μM) 200 nM Arf6.
The mark [13] stands for this setting: 500 ng single intraocular injection with VEGF 50 ng (FIG. 6).

Entries after “also recorded” stand apart in the source; their conditions may differ. Where two headings read alike, the source gives them in different places.

Arf6 (Homo sapiens (Human), UniProt P62330), sequence (P62330 14-175): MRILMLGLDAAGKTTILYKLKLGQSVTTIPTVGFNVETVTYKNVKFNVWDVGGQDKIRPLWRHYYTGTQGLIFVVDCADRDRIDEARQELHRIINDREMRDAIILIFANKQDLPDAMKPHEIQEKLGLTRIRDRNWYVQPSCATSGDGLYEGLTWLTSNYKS
Arf6 (Mus musculus (Mouse), UniProt P62331), sequence (P62331 whole entry): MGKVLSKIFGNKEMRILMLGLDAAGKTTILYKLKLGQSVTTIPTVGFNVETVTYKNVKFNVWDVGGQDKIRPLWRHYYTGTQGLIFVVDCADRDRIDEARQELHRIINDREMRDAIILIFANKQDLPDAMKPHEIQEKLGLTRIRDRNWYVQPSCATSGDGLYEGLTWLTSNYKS

In general, IC50 refers to the concentration needed to halve the response being measured. Turning to `O=c1cc(-c2ccc([N+](=O)[O-])cc2)[nH]c2c(-c3ccc(Cl)cc3)c(Cc3ccccc3)nn12` [Compound 38], the IC50 at Arf6 [1] (setting [11]) turned out to be 1.8 µM; on Arf6 [1] (setting [12]), 1.4 µM. Further, the “Inhibition of Arf6 activation (GTP-bound Arf6)” value at Arf6 [2] is on record as “Inhibition of Arf6 activation”. Moreover, in the data set with LOX melanoma cells [3] (1 μM), the “FBS-induced LOX cell invasion through Matrigel” value is “substantially inhibit, or completely inhibit”. Moreover, in the data set on LOX melanoma cells [3] (LOX melanoma cells), the “inhibition of melanoma cell invasion” value is “can inhibit invasion; also recorded: more potent inhibitor of melanoma cell invasion than SecinH3”. Also, the “inhibition of LOX cell proliferation” value with LOX melanoma cells [4] was “can inhibit proliferation; also recorded: potent inhibitor”. Besides, the “inhibition of LN-229 cell proliferation” value in data set [5] is recorded as “can inhibit proliferation; also recorded: potent inhibitor”. Also, the VEGF-induced retinal permeability entry in data set [6] (setting [13]) was “reduced VEGF-induced retinal permeability”; in data set [6] (single intraocular injection, Compound 38 50 ng or 500 ng, Avastin 20 μg, SU4312 5 μg (FIG. 7)), “reduced VEGF-induced retinal permeability”; in data set [7], “reduced VEGF-induced retinal permeability”. Moreover, the “area of CNV” value in [8] is given as “reduced the area of CNV in a dose-dependent manner”. For the same molecule, the area of neovascularization result in data set [9] is recorded as “reduced the area of neovascularization”. In addition, the “number of cells in the lung fluid (BALF)” value in data set [10] was “reduced the number of cells”. Besides, the “protein concentration in the lung fluid (BALF)” value in [10] was “reduced”.
Regarding `O=c1cc(Cc2ccccc2)[nH]c2c(-c3ccc(Cl)cc3)c(C(F)(F)F)nn12` [Compound 65], the IC50 on Arf6 [1] (setting [11]) worked out at 3.7 µM; at Arf6 [1] (setting [12]) it was 4.9 µM. Further, the VEGF-induced retinal permeability entry in [6] (setting [13]) is “reduced VEGF-induced retinal permeability”. The “mortality of mice infected with H1N1 virus” value in the data set on H1N1 virus was “reduced the mortality of mice nearly as well as ribavirin”.

Values taken from US10849901B2, “Arf6 inhibitors and methods of synthesis and use thereof” (Navigen, Inc., priority 2014, dated 2020).
